Measured values as given in patent US8349872B2, “Tripyridyl carboxamide orexin receptor antagonists” (Merck Sharp & Dohme Corp., priority 2008, dated 2013).

Biological target: T1, OX2 receptor (Homo sapiens, UniProt O43614)
T1 construct: expressed in transfected cells; host or cells: CHO cells (membranes)
T1 sequence (O43614 1-444): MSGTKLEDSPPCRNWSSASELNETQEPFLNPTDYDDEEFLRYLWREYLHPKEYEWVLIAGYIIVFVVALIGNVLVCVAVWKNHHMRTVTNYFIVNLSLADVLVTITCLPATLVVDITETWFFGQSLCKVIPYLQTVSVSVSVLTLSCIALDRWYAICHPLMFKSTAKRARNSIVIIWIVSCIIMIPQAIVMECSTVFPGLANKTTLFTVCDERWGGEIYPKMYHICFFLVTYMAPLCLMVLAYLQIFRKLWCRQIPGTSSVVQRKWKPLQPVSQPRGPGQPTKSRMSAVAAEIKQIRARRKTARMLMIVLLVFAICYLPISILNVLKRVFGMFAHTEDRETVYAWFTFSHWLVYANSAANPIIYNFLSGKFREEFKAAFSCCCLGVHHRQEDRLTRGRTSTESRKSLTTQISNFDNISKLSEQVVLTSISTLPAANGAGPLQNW
Test: radioligand binding assay, OX2 receptor
Conditions: membranes prepared from CHO cells expressing the OX2 receptor; read-out: OX2R Ki
Description: The utility of the compounds in accordance with the present invention as orexin receptor OX1R and/or OX2R antagonists may be readily determined without undue experimentation by methodology well known in the art, including the “FLIPR Ca^2+ Flux Assay” (Okumura et al., Biochem. Biophys. Res. Comm. 280:976-981, 2001). In a typical experiment the OX1 and OX2 receptor antagonistic activity of the compounds of the present invention was determined in accordance with the following experimental method. For intracellular calcium measurements, Chinese hamster ovary (CHO) cells expressing the rat orexin-1 receptor or the human orexin-2 receptor, are grown in Iscove's modified DMEM containing 2 mM L-glutamine, […], 1% hypoxanthine-thymidine supplement, 100 U/ml penicillin, 100 ug/ml streptomycin and 10% heat-inactivated fetal calf serum (FCS). The cells are seeded at 20,000 cells/well into Becton-Dickinson black 384-well clear bottom sterile plates coated with poly-D-lysine. All reagents were from GIBCO-Invitrogen Corp. The seeded plates are incubated overnight at 37° C. and 5% CO2. Ala-6,12 human orexin-A as the agonist is prepared as a 1 mM stock solution in 1% bovine serum albumin (BSA) and diluted in assay buffer (HBSS containing 20 mM HEPES, 0.1% BSA and 2.5 mM probenecid, pH 7.4) for use in the assay at a final concentration of 70 pM. Test compounds are prepared as 10 mM stock solution in DMSO, then diluted in 384-well plates, first in DMSO, then assay buffer. On the day of the assay, cells are washed 3 times with 100 ul assay buffer and then incubated for 60 min (37° C., 5% CO2) in 60 ul assay buffer containing 1 uM Fluo-4AM ester, 0.02% pluronic acid, and 1% BSA. The dye loading solution is then aspirated and cells are washed 3 times with 100 ul assay buffer. 30 ul of that same buffer is left in each well. Within the Fluorescent Imaging Plate Reader (FLIPR, Molecular Devices), test compounds are added to the plate in a volume of 25 ul, incubated for 5 min and finally 25 ul of agonist is added. Fluorescence is measured for each well at 1 second intervals for 5 minutes and the height of each fluorescence peak is compared to the height of the fluorescence peak induced by 70 pM Ala-6,12 orexin-A with buffer in place of antagonist. For each antagonist, IC50 value (the concentration of compound needed to inhibit 50% of the agonist response) is determined. Alternatively, compound potency can be assessed by a radioligand binding assay (described in Bergman et. al. Bioorg. Med. Chem. Lett. 2008, 18, 1425-1430) in which the inhibition constant (Ki) is determined in membranes prepared from CHO cells expressing either the OX1 or OX2 receptor. The intrinsic orexin receptor antagonist activity of a compound which may be used in the present invention may be determined by these assays.

Row | Compound | Ki [nM]
1 | COc1ccc(CNC(=O)c2cc(-c3cncc(Cl)c3)cnc2-c2ccccn2)nc1OC [12-5, 5″-chloro-N-[(5,6-dimethoxypyridin-2-yl)methyl]-2,2′:5′,3″-terpyridine-3′-carboxamide] | 0.54
2 | COc1ccc(CNC(=O)c2cc(-c3cc(C)cnc3F)cnc2-c2ccccn2)cc1Cl [11-5, N-(3-chloro-4-methoxybenzyl)-2″-fluoro-5″- methyl-2,2′: 5′,3 ″-terpyridine-3′-carboxamide] | 1.3
3 | N-(4-ethyl-3- methoxybenzyl)-5″- methyl-2,2′:5′,3″- terpyridine-3′- carboxamide [12-17] | 1.2
4 | COc1ccc(CNC(=O)c2cc(-c3cncc(C)c3)cnc2-c2ccccn2)nc1OC [12-6, N-[(5,6-dimethoxypyridin-2-yl)methyl]-5″-methyl-2,2′:5′,3″-terpyridine-3′-carboxamide] | 0.46
5 | COc1ccc(CNC(=O)c2cc(-c3cncc(C#N)c3)cnc2-c2ccccn2)nc1OC [12-14, 5″-cyano-N-[(5,6-dimethoxypyridin-2-yl)methyl]-2,2′:5′,3″- terpyridine-3′-carboxamide] | 12
